Assay results: US6019988A, “Methods and compositions for enhancing skin permeation of drugs using permeation enhancers, when drugs and/or permeation enhancers are unstable in combination during long-term storage” (priority 1996, dated 2000)
Blank lines part the entries; values can stand above or below the compound they belong to.

Key:
[1] = Plasma concentration after topical application to hairless rats; format: in vivo, hairless rat
[2] = Solubility in water- or oil-based formulations; format: physicochemical
[3] = Stability in pharmaceutical solvents / excipients at 30 and 40 °C
[4] = not told

concentration of drug in plasma ([1]; by 6 hours after topical application): below the limit of detection
Cmax ([1]; rat, plasma, topical or ocular, dual system 2% ointment + SLS cream, single topical dose, read-out: peak plasma concentrations): 2400 ng/mL
Tmax ([1]; rat, plasma, topical or ocular, dual system 2% ointment + SLS cream, single topical dose, read-out: time of peak plasma concentrations): 2 h
solubility in water-based or oil-based formulations [2]: soluble
SMILES: CC(=C/C(=O)O)/C(=C/c1ccc2cc3c(cc2c1)C(C)(C)CCC3(C)C)c1cccc(C(=O)O)c1 [BMS-188184-02, (2Z,4Z)-3-methyl-4-(3-carboxyphenyl)-5-[(1,2,3,4-tetrahydro-1,1,4,4-tetramethyl)-6-anthracenyl]-2,4-pentadienoic acid]

remaining at 240 h ([3]; pharmaceutical solvents): < 90%
SMILES: CC(=C/C(=O)O)/C(=C/c1ccc2cc3c(cc2c1)C(C)(C)CCC3(C)C)c1cccc(C(=O)O)c1 [BMS-188184-05]

shelf life in these solvents ([3]; 30° C., propylene glycol, Transcutol, ethanol SD-40, PEG-8, water): less than 10 days
stability in various pharmaceutical solvents ([3]; propylene glycol, Transcutol, ethanol SD-40, PEG-8, water, 30° C. and 40° C.): poor
SMILES: CC(=C/C(=O)O)/C(=C/c1ccc2cc3c(cc2c1)C(C)(C)CCC3(C)C)c1cccc(C(=O)O)c1 [BMS-188184, (2Z,4Z)-3-methyl-4-(3-carboxyphenyl)-5-[(1,2,3,4-tetrahydro-1,1,4,4-tetramethyl)-6-anthracenyl]-2,4-pentadienoic acid]
long-term (storage) stability in formulations / with permeation enhancers [4]: stable in GEAHLENE base containing mineral oil and in petrolatum ointment containing fatty acid esters

solubility in water-based or oil-based formulations [2]: virtually insoluble
SMILES: CC(=C/C(=O)O)/C(=C/c1ccc2cc3c(cc2c1)C(C)(C)CCC3(C)C)c1cccc(C(=O)O)c1 [BMS-188184-01, (2Z,4Z)-3-methyl-4-(3-carboxyphenyl)-5-[(1,2,3,4-tetrahydro-1,1,4,4-tetramethyl)-6-anthracenyl]-2,4-pentadienoic acid]
